Data from ChEMBL document CHEMBL4229381, “New cytokinin derivatives possess UVA and UVB photoprotective effect on human skin cells and prevent oxidative stress” (Eur J Med Chem, 2018).

What was measured:
[1] = Stability of the compound in pH 3 solution at 10^-4 M after 1 hr by HPLC analysis; format: physicochemical; settings: read-out: Stability
[2] = Phototoxicity in human HaCaT cells assessed as cell viability at 125 uM preincubated for 60 mins followed by 7.5 J/cm2 UVA irradiation and measured after 24 hrs by neutral red uptake assay relative to control; format: cell-based; settings: read-out: Activity
[3] = Cytotoxicity in human HaCaT cells assessed as cell viability at 62.5 uM after 24 hrs by neutral red uptake assay relative to control; format: cell-based; settings: read-out: Activity
BJ = test: Cytotoxicity in human BJ cells assessed as reduction in cell viability at 50 uM after 24 hrs by resazurin dye-based fluorescence assay relative to control
[4] = Cytotoxicity in human NHDF cells assessed as cell viability at 125 uM after 24 hrs by neutral red uptake assay relative to control; format: cell-based; settings: read-out: Activity
[5] = Phototoxicity in human HaCaT cells assessed as cell viability at 31.3 uM preincubated for 60 mins followed by 7.5 J/cm2 UVA irradiation and measured after 24 hrs by neutral red uptake assay relative to control; format: cell-based; settings: read-out: Activity
[6] = Stability of the compound in pH 3 solution at 10^-4 M after 24 hrs by HPLC analysis; format: physicochemical; settings: read-out: Stability
[7] = Stability of the compound in pH 5 solution at 10^-4 M after 24 hrs by HPLC analysis; format: physicochemical; settings: read-out: Stability
[8] = Cytotoxicity in human NHDF cells assessed as cell viability at 31.3 uM after 24 hrs by neutral red uptake assay relative to control; format: cell-based; settings: read-out: Activity
Amaranthus caudatus = test: Growth promoting activity in Amaranthus caudatus var. atropurpurea seeds by measuring betacyanin at 10^-4 mol/L after 48 hrs relative to control; format: functional
HaCaT = test: Potency index, ratio of compound effect to rosmarinic acid effect for cytoprotection against phototoxicity in human HaCaT cells assessed as increase in cell viability at 3.9 uM preincubated for 60 mins followed by 150 mJ/cm2 UVB irradiation and measured after 24 hrs by neutral red uptake assay; format: functional
[9] = Phototoxicity in human NHDF cells assessed as cell viability at 31.3 uM preincubated for 60 mins followed by 5 J/cm2 UVA irradiation and measured after 24 hrs by neutral red uptake assay relative to control; format: cell-based; settings: read-out: Activity
[10] = Phototoxicity in human NHDF cells assessed as cell viability at 62.5 uM preincubated for 60 mins followed by 5 J/cm2 UVA irradiation and measured after 24 hrs by neutral red uptake assay relative to control; format: cell-based; settings: read-out: Activity

**Q.** With `c1csc(CNc2ncnc3c2ncn3C2CCCO2)c1` (stereo not drawn) as the compound, how does the remaining at 1 h, 100 µM [1] read?
**A.** The remaining at 1 h, 100 µM was 94.6%.

**Q.** And the viability at 24 h, 125 µM [2]?
**A.** The viability at 24 h, 125 µM was 127%.

**Q.** And the viability at 24 h, 62.5 µM [3]?
**A.** Its viability at 24 h, 62.5 µM is 104%.

**Q.** And the Activity (BJ)?
**A.** Its Activity is < 10%.

**Q.** And the viability at 24 h, 125 µM [4]?
**A.** Its viability at 24 h, 125 µM is 108%.

**Q.** And the viability at 24 h, 31.3 µM [5]?
**A.** The viability at 24 h, 31.3 µM was 128%.

**Q.** What about the remaining at 24 h, 100 µM [6] of the same compound?
**A.** The remaining at 24 h, 100 µM was 0.8%.

**Q.** And the remaining at 24 h, 100 µM [7]?
**A.** Its remaining at 24 h, 100 µM is 94.2%.

**Q.** And the viability at 24 h, 31.3 µM [8]?
**A.** The viability at 24 h, 31.3 µM was 107%.

**Q.** And the Activity (Amaranthus caudatus)?
**A.** The Activity was 81%.

**Q.** What about the Ratio (HaCaT) of the same compound?
**A.** Its Ratio is >2.

**Q.** What about the viability at 24 h, 31.3 µM [9] of the same compound?
**A.** Its viability at 24 h, 31.3 µM is 106%.

**Q.** What about the viability at 24 h, 62.5 µM [10] of the same compound?
**A.** The viability at 24 h, 62.5 µM was 103%.
